Measured values taken from paper PMC4868641 (Chemical research in toxicology, 2016).
One block for each compound: values may come before it.

What was measured:
mice = details: cited from earlier work
human kidney microsomes [1] = assay: P450-mediated N-oxidation in human kidney microsomes; type: in vitro ADME; details: limit of detection 50 pmol/min/mg protein
[2] = pH 7.0; cited from earlier work
calf thymus DNA = assay: DNA adduct formation; type: biochemical; details: 0.5 μM, calf thymus DNA 0.4 mg/mL, pH 7.4, 30 min, 37 °C
UGT1A9 [3] = target: T1, UGT1A9 (Homo sapiens, UniProt O60656); details: cited from earlier work
T1 sequence (O60656 26-530): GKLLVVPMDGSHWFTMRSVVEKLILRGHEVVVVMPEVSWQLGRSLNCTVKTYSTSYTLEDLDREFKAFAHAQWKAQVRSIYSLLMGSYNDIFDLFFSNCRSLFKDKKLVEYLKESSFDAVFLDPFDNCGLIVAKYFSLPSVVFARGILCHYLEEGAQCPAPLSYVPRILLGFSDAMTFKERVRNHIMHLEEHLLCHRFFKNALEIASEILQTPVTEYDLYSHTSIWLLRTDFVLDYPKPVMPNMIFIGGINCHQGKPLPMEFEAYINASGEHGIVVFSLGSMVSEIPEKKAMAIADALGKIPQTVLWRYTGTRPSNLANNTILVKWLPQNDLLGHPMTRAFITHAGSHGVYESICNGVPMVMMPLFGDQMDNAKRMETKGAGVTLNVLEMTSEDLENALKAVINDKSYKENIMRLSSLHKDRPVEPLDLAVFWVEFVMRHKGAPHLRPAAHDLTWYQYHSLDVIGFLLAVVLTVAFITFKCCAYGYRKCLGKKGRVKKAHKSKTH

[4] = test system: human microsomes (liver, kidney, colon, rectum); type: in vitro ADME; details: 1 μM, pH 7.5
UGT2B10 [5] = details: cited from earlier work
UGT1A1 [6] = details: cited from earlier work
UGT2B10 [7] = details: cited from earlier work; remark: listed apart in the source
human kidney microsomes [8] = assay: Inhibition of HONH-AαC glucuronidation in human kidney microsomes; type: biochemical; details: niflumic acid 0.1-2.5 μM, HONH-AαC 1 μM
UGT1A9 [9] = target: T1, UGT1A9; assay: Inhibition of propofol glucuronidation in human liver microsomes; type: biochemical; details: niflumic acid 0.1-2.5 μM, propofol 100 μM
UGT1A1 [10] = assay: Inhibition of estradiol-3-O-Gluc formation in human liver microsomes; type: biochemical; details: niflumic acid 0.1-2.5 μM, estradiol 25 μM
human liver microsomes = assay: Inhibition of HONH-AαC glucuronidation in human liver microsomes; type: biochemical; details: niflumic acid 0.1-2.5 μM, HONH-AαC 1 μM
[11] = test system: other UGT1A and UGT2B isoforms; details: cited from earlier work
rodents = details: cited from earlier work

SMILES: Nc1ccc2c(n1)[nH]c1ccccc12 [AαC, 2-Amino-9H-pyrido[2,3-b]indole]
mutations and early biomarkers of neoplasia (mice; colon of mice): induces lacI mutations and aberrant crypt foci
tumor induction (mice; mice): induces liver and blood vessel tumors
rate of P450-mediated N-oxidation (human kidney microsomes [1]): very low

SMILES: O=C(O)[C@H]1O[C@@H](ONc2ccc3c(n2)[nH]c2ccccc23)[C@H](O)[C@@H](O)[C@@H]1O [AαC-HN^2-O-Gluc, O-(β-D-glucosidurony1)-2-hydroxyamino-9H-pyrido[2,3-b]indole]
half-life [2]: exceeds 6 h

SMILES: O=C(O)[C@H]1O[C@@H](N(O)c2ccc3c(n2)[nH]c2ccccc23)[C@H](O)[C@@H](O)[C@@H]1O [AαC-HON^2-Gluc, N^2-(β-D-glucosidurony1)-2-hydroxyamino-9H-pyrido[2,3-b]indole]
DNA adduct formation (dG-C8-AαC / dG-C8-PhIP) (calf thymus DNA): considerably lower than HONH-AαC

SMILES: ONc1ccc2c(n1)[nH]c1ccccc12 [HONH-AαC, 2-hydroxyamino-9H-pyrido[2,3-b]indole]
Km (UGT1A9 [3]): 6.3 µM
DNA adduct formation (dG-C8-AαC / dG-C8-PhIP) (calf thymus DNA): comparable levels
principal Gluc conjugate formed [4]: AαC-HN^2-O-Gluc
predominant Gluc conjugate formed ([4]; 20 min): AαC-HON^2-Gluc

SMILES: Cn1c(NO)nc2ncc(-c3ccccc3)cc21 [HONH-PhIP, 2-hydroxyamino-1-methyl-6-phenylimidazo[4,5-b]pyridine]
Km (UGT1A9 [3]): 36 µM
DNA adduct formation (dG-C8-AαC / dG-C8-PhIP) (calf thymus DNA): comparable levels
Km (UGT2B10 [5]): 58 µM
Km (UGT1A1 [6]): 19 µM

inhibition of glucuronidation of propofol (UGT1A9 substrate) (UGT1A9 [9]): effective in inhibiting
SMILES: O=C(O)c1cccnc1Nc1cccc(C(F)(F)F)c1 [Niflumic acid, niflumic acid]
effect on UGT2B10 activity (UGT2B10 [7]): does not alter
effect on AαC-HN^2-O-Gluc formation (human kidney microsomes [8]): greatly decreased
effect on AαC-HON^2-Gluc formation (human kidney microsomes [8]): greatly decreased
effect on formation of estradiol-3-O-Gluc (UGT1A1) (UGT1A1 [10]): unaffected
effect on AαC-HN^2-O-Gluc formation (human liver microsomes): concentration-dependent inhibition
effect on AαC-HON^2-Gluc formation (human liver microsomes): unchanged
effect on activities of other UGT1A and UGT2B isoforms [11]: little effect

SMILES: Cn1c(N)nc2ncc(-c3ccccc3)cc21 [PhIP, 2-amino-1-methyl-6-phenylimidazo[4,5-b]pyridine]
cancer induction (rodents): induces lymphoma, pancreatic, colorectal, and prostate cancers
rate of P450-mediated N-oxidation (human kidney microsomes [1]): very low

SMILES: Cn1c(NO[C@@H]2O[C@H](C(=O)O)[C@@H](O)[C@H](O)[C@H]2O)nc2ncc(-c3ccccc3)cc21 [PhIP-HN^2-O-Gluc, O-(β-D-glucosidurony1)-2-hydroxyamino-1-methyl-6-phenylimidazo[4,5-b]pyridine]
DNA adduct formation (dG-C8-AαC / dG-C8-PhIP) (calf thymus DNA): higher amounts of dG-C8-PhIP than HONH-PhIP

SMILES: Cn1c(N(O)[C@@H]2O[C@H](C(=O)O)[C@@H](O)[C@H](O)[C@H]2O)nc2ncc(-c3ccccc3)cc21 [PhIP-HON^2-Gluc, N^2-(β-D-glucosidurony1)-2-hydroxyamino-1-methyl-6-phenylimidazo[4,5-b]pyridine]
DNA adduct formation (dG-C8-AαC / dG-C8-PhIP) (calf thymus DNA): not detected
